Test results published in ChEMBL document CHEMBL1201862, “PubChem BioAssay data set” (2004).
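Compound exposure: 48 hours, 5 concentrations, 96-well plates. Here, GI50 denotes the concentration required for 50% inhibition of growth.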 Active and inactive are the calls of the source. No stated cut-off is given here; in the data, active = GI50 up to about 1.1 µM and inactive = higher.

What was measured:
Test in all cases: NCI tumour cell line growth inhibition, 48 h
[1] = system: 786-0
[2] = system: A549
[3] = system: ACHN
[4] = system: BT-549
[5] = system: CAKI-1
[6] = system: CCRF-CEM
[7] = system: COLO 205
[8] = system: DU-145
[9] = system: EKVX
[10] = system: HCC 2998
[11] = system: HCT-116
[12] = system: HCT-15
[13] = system: HL-60
[14] = system: HOP-92
[15] = system: HT-29
[16] = system: IGROV-1
[17] = system: K562
[18] = system: KM12
[19] = system: LOX IMVI
[20] = system: M14
[21] = system: MCF7
[22] = system: MDA-MB-231
[23] = system: MDA-MB-435
[24] = system: MDA-N
[25] = system: MOLT-4
[26] = system: Malme-3M
[27] = system: NCI-H226
[28] = system: NCI-H23
[29] = system: NCI-H460
[30] = system: NCI-H522
[31] = system: NCI/ADR-RES
[32] = system: OVCAR-3
[33] = system: OVCAR-4
[34] = system: OVCAR-5
[35] = system: OVCAR-8
[36] = system: PC-3
[37] = system: RXF 393
[38] = system: SF-295
[39] = system: SF-539
[40] = system: SK-MEL-28
[41] = system: SK-MEL-2
[42] = system: SK-MEL-5
[43] = system: SK-OV-3
[44] = system: SN12C
[45] = system: SNB-19
[46] = system: SNB-75
[47] = system: SR
[48] = system: SW-620
[49] = system: T47D
[50] = system: TK-10
[51] = system: U-251
[52] = system: UACC-257
[53] = system: UACC-62
[54] = system: UO-31
[55] = system: HOP-62
[56] = system: RPMI-8226
[57] = system: SF-268
[58] = system: A498

COc1ccc(N[C@H](C[S+]([O-])c2ccc(C)cc2)C(F)(F)F)cc1 (some centres not stated)
GI50 [1]: > 100 µM (inactive)
GI50 [2]: > 100 µM (inactive)
GI50 [3]: > 100 µM (inactive)
GI50 [4]: > 100 µM (inactive)
GI50 [5]: > 100 µM (inactive)
GI50 [6]: > 100 µM (inactive)
GI50 [7]: > 100 µM (inactive)
GI50 [8]: > 100 µM (inactive)
GI50 [9]: > 100 µM (inactive)
GI50 [10]: > 100 µM (inactive)
GI50 [11]: > 100 µM (inactive)
GI50 [12]: > 100 µM
GI50 [13]: > 100 µM (inactive)
GI50 [14]: > 100 µM (inactive)
GI50 [15]: > 100 µM (inactive)
GI50 [16]: > 100 µM (inactive)
GI50 [17]: > 100 µM (inactive)
GI50 [18]: > 100 µM (inactive)
GI50 [19]: > 100 µM (inactive)
GI50 [20]: > 100 µM (inactive)
GI50 [21]: > 100 µM (inactive)
GI50 [22]: > 100 µM (inactive)
GI50 [23]: > 100 µM (inactive)
GI50 [24]: > 100 µM (inactive)
GI50 [25]: > 100 µM (inactive)
GI50 [26]: > 100 µM (inactive)
GI50 [27]: > 100 µM (inactive)
GI50 [28]: > 100 µM (inactive)
GI50 [29]: > 100 µM (inactive)
GI50 [30]: > 100 µM (inactive)
GI50 [31]: > 100 µM (inactive)
GI50 [32]: > 100 µM (inactive)
GI50 [33]: > 100 µM (inactive)
GI50 [34]: > 100 µM (inactive)
GI50 [35]: > 100 µM (inactive)
GI50 [36]: > 100 µM (inactive)
GI50 [37]: > 100 µM (inactive)
GI50 [38]: > 100 µM (inactive)
GI50 [39]: > 100 µM (inactive)
GI50 [40]: > 100 µM (inactive)
GI50 [41]: > 100 µM (inactive)
GI50 [42]: > 100 µM (inactive)
GI50 [43]: > 100 µM (inactive)
GI50 [44]: > 100 µM (inactive)
GI50 [45]: > 100 µM (inactive)
GI50 [46]: > 100 µM (inactive)
GI50 [47]: > 100 µM (inactive)
GI50 [48]: > 100 µM (inactive)
GI50 [49]: > 100 µM (inactive)
GI50 [50]: > 100 µM (inactive)
GI50 [51]: > 100 µM (inactive)
GI50 [52]: > 100 µM (inactive)
GI50 [53]: > 100 µM (inactive)
GI50 [54]: > 100 µM (inactive)

COC(=O)N1CC2C3C4CC(C(c5ccccc5)=C4c4ccccc4)C3C21 (configuration not stated)
GI50 [2]: 18 µM (inactive)
GI50 [3]: 23.3 µM (inactive)
GI50 [4]: 16 µM (inactive)
GI50 [5]: 12.6 µM (inactive)
GI50 [6]: 14.9 µM (inactive)
GI50 [7]: 23.1 µM (inactive)
GI50 [8]: 14.7 µM (inactive)
GI50 [9]: 13.2 µM (inactive)
GI50 [10]: 16.3 µM (inactive)
GI50 [11]: 11.9 µM (inactive)
GI50 [55]: 19.3 µM (inactive)
GI50 [14]: 11.7 µM (inactive)
GI50 [15]: 17.1 µM (inactive)
GI50 [16]: 17.5 µM (inactive)
GI50 [17]: 6.04 µM (inactive)
GI50 [18]: 14.6 µM (inactive)
GI50 [19]: 12.2 µM (inactive)
GI50 [20]: 26.8 µM (inactive)
GI50 [21]: 20 µM (inactive)
GI50 [22]: 7.35 µM (inactive)
GI50 [23]: 15.2 µM (inactive)
GI50 [24]: 20.4 µM (inactive)
GI50 [25]: 12.5 µM (inactive)
GI50 [27]: 14 µM (inactive)
GI50 [28]: 20.9 µM (inactive)
GI50 [29]: 14.5 µM (inactive)
GI50 [31]: 16.8 µM (inactive)
GI50 [32]: 15.5 µM (inactive)
GI50 [33]: 13.1 µM (inactive)
GI50 [34]: 27.7 µM (inactive)
GI50 [35]: 17.8 µM (inactive)
GI50 [36]: 10 µM (inactive)
GI50 [56]: 8.59 µM (inactive)
GI50 [37]: 17.7 µM (inactive)
GI50 [57]: 16.3 µM (inactive)
GI50 [38]: 13.4 µM (inactive)
GI50 [39]: 13.8 µM (inactive)
GI50 [40]: 19.9 µM (inactive)
GI50 [41]: 19.8 µM (inactive)
GI50 [42]: 11.5 µM (inactive)
GI50 [43]: 20 µM (inactive)
GI50 [44]: 17.6 µM (inactive)
GI50 [45]: 21.1 µM (inactive)
GI50 [46]: 21.8 µM (inactive)
GI50 [47]: 11.1 µM (inactive)
GI50 [48]: 18.1 µM (inactive)
GI50 [49]: 9.82 µM (inactive)
GI50 [50]: 15.8 µM (inactive)
GI50 [51]: 13.2 µM (inactive)
GI50 [52]: 13.7 µM (inactive)
GI50 [53]: 13.2 µM (inactive)
GI50 [54]: 12.8 µM (inactive)

Cc1ccc([S+]([O-])c2cccs2)cc1 (configuration not stated)
GI50 [1]: > 100 µM (inactive)
GI50 [58]: 38.1 µM (inactive)
GI50 [2]: > 100 µM (inactive)
GI50 [3]: > 100 µM (inactive)
GI50 [4]: > 100 µM (inactive)
GI50 [6]: > 100 µM (inactive)
GI50 [7]: > 100 µM (inactive)
GI50 [8]: > 100 µM (inactive)
GI50 [9]: > 100 µM (inactive)
GI50 [11]: > 100 µM (inactive)
GI50 [12]: > 100 µM
GI50 [13]: > 100 µM (inactive)
GI50 [55]: > 100 µM (inactive)
GI50 [14]: > 100 µM (inactive)
GI50 [15]: > 100 µM (inactive)
GI50 [17]: > 100 µM (inactive)
GI50 [18]: > 100 µM (inactive)
GI50 [20]: > 100 µM (inactive)
GI50 [21]: > 100 µM (inactive)
GI50 [23]: > 100 µM (inactive)
GI50 [24]: > 100 µM (inactive)
GI50 [25]: > 100 µM (inactive)
GI50 [26]: > 100 µM (inactive)
GI50 [27]: > 100 µM (inactive)
GI50 [28]: > 100 µM (inactive)
GI50 [29]: > 100 µM (inactive)
GI50 [31]: > 100 µM (inactive)
GI50 [32]: > 100 µM (inactive)
GI50 [34]: > 100 µM (inactive)
GI50 [35]: > 100 µM (inactive)
GI50 [36]: > 100 µM (inactive)
GI50 [56]: > 100 µM (inactive)
GI50 [37]: > 100 µM (inactive)
GI50 [57]: > 100 µM (inactive)
GI50 [38]: > 100 µM (inactive)
GI50 [39]: > 100 µM (inactive)
GI50 [40]: > 100 µM (inactive)
GI50 [44]: > 100 µM (inactive)
GI50 [45]: > 100 µM (inactive)
GI50 [47]: > 100 µM (inactive)
GI50 [48]: > 100 µM (inactive)
GI50 [49]: > 100 µM (inactive)
GI50 [50]: > 100 µM (inactive)
GI50 [51]: > 100 µM (inactive)
GI50 [52]: > 100 µM (inactive)
GI50 [54]: > 100 µM (inactive)
